Test results reported in US8454582B2, “Methods and devices for the treatment of ocular conditions” (Surmodics, Inc., priority 2004, dated 2013).

Tests used:
[1] = In vivo elution: HPLC detection of TA in tissues after 4-week subretinal PCL/TA implantation; conditions: four weeks after subretinal implant, PCL/TA 60:40, rabbit
[2] = 72 hours after injection; cited from earlier work

SMILES: CC1(C)O[C@@H]2C[C@H]3[C@@H]4CCC5=CC(=O)C=C[C@]5(C)[C@@]4(F)[C@@H](O)C[C@]3(C)[C@]2(C(=O)CO)O1 [TA, Triamcinolone acetonide]
- TA in the anterior structures (HPLC) [1]: not detected
- TA in the blood (HPLC) [1]: not detected
- TA in the posterior tissue samples (HPLC) [1]: confirmed the presence

SMILES: C[C@]12C=CC(=O)C=C1CC[C@H]1[C@@H]3C[C@@H](O)[C@](O)(C(=O)CO)[C@@]3(C)C[C@H](O)[C@@]12F [triamcinolone]
- triamcinolone present in the vitreous that is associated with other tissues including the retina, pigment epithelium, and sclera [2]: less than 1%
